Laboratory results reported in the kinase profiling compilation of Christmann-Franck et al. (2016).

What was measured:
Assay in all cases: radiometric filter-binding kinase assay
[1] = biological target: SIK3 (human) (UniProt Q9Y2K2)
[2] = biological target: STK16 (human) (UniProt O75716)
[3] = biological target: EIF2AK3 (human) (UniProt Q9NZJ5)
[4] = biological target: ABL1 (human) (UniProt P00519)
[5] = biological target: ZAP70 (human) (UniProt P43403)
[6] = biological target: STK24 (human) (UniProt Q9Y6E0)
Chain of STK24 (human) (Q9Y6E0 whole entry, looked up): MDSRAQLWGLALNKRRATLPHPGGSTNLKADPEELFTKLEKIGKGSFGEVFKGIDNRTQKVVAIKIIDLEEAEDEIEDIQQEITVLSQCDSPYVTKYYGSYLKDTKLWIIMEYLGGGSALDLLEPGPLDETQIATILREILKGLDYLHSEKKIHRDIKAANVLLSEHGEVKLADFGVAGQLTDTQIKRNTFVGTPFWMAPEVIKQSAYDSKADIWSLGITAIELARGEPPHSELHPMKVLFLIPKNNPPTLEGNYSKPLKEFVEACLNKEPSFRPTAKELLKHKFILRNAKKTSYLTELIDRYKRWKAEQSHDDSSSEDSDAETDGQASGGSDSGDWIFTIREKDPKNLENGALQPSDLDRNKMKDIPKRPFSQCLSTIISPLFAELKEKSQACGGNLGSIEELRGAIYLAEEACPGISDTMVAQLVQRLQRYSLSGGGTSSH

[7] = biological target: ULK2 (human) (UniProt Q8IYT8)
[8] = biological target: AURKB (human) (UniProt Q96GD4)
Chain of AURKB (human) (Q96GD4 whole entry, looked up): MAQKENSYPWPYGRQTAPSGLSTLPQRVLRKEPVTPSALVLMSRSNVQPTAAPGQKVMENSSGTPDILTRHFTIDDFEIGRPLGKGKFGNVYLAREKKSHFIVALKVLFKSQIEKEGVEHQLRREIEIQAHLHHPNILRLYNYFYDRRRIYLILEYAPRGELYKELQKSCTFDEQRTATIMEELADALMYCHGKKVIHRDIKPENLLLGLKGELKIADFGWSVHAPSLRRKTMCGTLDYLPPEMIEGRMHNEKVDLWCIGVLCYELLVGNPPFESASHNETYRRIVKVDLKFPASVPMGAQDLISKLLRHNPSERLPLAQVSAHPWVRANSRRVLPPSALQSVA

[9] = biological target: SIK2 (human) (UniProt Q9H0K1)
[10] = biological target: TTBK1 (human) (UniProt Q5TCY1)
[11] = biological target: PHKG1 (human) (UniProt Q16816)
Chain of PHKG1 (human) (Q16816 whole entry, looked up): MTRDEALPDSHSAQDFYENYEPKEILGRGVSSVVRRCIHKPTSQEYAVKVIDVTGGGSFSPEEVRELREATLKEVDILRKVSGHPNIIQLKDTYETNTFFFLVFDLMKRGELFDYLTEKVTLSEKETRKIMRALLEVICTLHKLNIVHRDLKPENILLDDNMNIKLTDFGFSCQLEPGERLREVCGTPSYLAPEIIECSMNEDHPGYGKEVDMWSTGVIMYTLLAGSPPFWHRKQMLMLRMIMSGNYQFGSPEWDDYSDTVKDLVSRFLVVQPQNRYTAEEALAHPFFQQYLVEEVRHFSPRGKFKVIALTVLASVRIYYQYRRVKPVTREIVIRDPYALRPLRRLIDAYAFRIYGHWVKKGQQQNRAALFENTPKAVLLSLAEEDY

[12] = biological target: TSSK1B (human) (UniProt Q9BXA7)
[13] = biological target: ULK1 (human) (UniProt O75385)
Chain of ULK1 (human) (O75385 whole entry, looked up): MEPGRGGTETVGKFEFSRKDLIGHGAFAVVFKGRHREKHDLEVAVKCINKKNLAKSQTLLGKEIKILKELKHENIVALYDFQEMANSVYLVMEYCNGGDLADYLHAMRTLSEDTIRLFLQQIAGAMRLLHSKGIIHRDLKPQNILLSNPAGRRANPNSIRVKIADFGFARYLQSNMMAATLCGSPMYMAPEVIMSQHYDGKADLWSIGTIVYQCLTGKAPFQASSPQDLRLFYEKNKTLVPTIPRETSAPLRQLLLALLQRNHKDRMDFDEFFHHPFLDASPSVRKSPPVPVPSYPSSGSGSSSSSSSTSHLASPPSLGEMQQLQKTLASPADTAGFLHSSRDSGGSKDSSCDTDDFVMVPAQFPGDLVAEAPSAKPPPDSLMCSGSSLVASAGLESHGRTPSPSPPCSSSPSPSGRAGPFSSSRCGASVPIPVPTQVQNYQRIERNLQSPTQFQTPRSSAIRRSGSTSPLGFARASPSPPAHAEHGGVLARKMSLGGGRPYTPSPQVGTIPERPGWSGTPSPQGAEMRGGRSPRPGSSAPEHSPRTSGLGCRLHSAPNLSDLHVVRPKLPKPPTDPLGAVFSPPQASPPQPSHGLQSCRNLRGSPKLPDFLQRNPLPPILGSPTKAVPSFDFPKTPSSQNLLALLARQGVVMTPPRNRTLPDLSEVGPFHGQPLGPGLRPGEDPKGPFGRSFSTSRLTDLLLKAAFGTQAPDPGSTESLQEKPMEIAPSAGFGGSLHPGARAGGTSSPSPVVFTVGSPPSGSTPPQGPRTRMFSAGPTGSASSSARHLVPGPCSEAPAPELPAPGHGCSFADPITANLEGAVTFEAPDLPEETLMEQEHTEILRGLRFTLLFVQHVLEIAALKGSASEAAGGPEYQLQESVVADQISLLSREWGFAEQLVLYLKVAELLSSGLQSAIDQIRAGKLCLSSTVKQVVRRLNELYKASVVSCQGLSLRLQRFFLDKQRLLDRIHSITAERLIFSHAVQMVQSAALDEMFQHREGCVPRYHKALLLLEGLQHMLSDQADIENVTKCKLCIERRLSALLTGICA

[14] = biological target: STK33 (human) (UniProt Q9BYT3)
Chain of STK33 (human) (Q9BYT3 whole entry, looked up): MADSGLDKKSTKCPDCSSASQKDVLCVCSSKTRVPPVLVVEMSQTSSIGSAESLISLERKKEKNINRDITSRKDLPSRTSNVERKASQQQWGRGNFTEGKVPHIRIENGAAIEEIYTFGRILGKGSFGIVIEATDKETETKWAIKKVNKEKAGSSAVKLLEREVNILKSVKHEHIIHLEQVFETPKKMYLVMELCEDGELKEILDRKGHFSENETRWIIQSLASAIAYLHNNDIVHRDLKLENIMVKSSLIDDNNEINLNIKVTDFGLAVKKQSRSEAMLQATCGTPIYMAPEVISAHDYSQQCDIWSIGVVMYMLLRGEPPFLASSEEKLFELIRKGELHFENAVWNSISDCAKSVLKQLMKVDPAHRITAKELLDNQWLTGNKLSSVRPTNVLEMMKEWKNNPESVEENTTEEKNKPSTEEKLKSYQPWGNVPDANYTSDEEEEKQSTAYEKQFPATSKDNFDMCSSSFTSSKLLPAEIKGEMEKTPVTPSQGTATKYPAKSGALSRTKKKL

[15] = biological target: DDR2 (human) (UniProt Q16832)
[16] = biological target: PRKCG (human) (UniProt P05129)
[17] = biological target: PTK6 (human) (UniProt Q13882)
[18] = biological target: CDK9 CCNT1 (human) (UniProt P50750+O60563)
[19] = biological target: TLK1 (human) (UniProt Q9UKI8)
[20] = biological target: TESK1 (human) (UniProt Q15569)
[21] = biological target: WNK1 (human) (UniProt Q9H4A3)
[22] = biological target: CSNK1G2 (human) (UniProt P78368)
[23] = test system: OXSR1 (human), O95747 [T185E]
[24] = biological target: TEK (human) (UniProt Q02763)
Chain of TEK (human) (Q02763 whole entry, looked up): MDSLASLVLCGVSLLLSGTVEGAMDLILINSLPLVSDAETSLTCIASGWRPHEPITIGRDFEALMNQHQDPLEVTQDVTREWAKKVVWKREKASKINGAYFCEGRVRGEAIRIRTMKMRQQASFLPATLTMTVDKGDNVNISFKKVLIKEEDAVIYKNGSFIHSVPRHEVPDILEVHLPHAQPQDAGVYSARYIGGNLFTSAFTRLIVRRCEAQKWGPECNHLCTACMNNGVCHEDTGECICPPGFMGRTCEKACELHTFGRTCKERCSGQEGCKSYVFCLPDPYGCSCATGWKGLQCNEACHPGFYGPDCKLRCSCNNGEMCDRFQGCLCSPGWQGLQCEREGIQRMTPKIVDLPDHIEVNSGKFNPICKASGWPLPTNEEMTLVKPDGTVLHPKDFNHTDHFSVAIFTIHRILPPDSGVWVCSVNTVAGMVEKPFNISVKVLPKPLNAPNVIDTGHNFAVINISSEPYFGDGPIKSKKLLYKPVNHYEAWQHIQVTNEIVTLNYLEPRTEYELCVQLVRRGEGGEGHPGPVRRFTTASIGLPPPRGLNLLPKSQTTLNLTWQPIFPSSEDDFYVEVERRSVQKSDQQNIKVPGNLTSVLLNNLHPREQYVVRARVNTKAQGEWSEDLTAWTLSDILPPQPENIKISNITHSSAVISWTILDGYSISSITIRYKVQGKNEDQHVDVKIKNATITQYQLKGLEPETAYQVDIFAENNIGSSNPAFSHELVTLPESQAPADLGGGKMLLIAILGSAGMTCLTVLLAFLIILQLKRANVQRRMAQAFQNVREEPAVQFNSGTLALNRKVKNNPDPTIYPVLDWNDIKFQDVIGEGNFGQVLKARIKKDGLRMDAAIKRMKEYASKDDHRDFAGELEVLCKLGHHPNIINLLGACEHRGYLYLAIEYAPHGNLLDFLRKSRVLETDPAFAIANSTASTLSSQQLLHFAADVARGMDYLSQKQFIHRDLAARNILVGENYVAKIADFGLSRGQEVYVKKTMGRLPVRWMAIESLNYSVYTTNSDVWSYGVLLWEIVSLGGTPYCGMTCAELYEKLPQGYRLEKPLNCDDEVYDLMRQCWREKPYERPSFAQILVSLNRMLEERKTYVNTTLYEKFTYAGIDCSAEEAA

[25] = biological target: IRAK1 (human) (UniProt P51617)

Chain of ABL1 (human) (P00519 whole entry, looked up): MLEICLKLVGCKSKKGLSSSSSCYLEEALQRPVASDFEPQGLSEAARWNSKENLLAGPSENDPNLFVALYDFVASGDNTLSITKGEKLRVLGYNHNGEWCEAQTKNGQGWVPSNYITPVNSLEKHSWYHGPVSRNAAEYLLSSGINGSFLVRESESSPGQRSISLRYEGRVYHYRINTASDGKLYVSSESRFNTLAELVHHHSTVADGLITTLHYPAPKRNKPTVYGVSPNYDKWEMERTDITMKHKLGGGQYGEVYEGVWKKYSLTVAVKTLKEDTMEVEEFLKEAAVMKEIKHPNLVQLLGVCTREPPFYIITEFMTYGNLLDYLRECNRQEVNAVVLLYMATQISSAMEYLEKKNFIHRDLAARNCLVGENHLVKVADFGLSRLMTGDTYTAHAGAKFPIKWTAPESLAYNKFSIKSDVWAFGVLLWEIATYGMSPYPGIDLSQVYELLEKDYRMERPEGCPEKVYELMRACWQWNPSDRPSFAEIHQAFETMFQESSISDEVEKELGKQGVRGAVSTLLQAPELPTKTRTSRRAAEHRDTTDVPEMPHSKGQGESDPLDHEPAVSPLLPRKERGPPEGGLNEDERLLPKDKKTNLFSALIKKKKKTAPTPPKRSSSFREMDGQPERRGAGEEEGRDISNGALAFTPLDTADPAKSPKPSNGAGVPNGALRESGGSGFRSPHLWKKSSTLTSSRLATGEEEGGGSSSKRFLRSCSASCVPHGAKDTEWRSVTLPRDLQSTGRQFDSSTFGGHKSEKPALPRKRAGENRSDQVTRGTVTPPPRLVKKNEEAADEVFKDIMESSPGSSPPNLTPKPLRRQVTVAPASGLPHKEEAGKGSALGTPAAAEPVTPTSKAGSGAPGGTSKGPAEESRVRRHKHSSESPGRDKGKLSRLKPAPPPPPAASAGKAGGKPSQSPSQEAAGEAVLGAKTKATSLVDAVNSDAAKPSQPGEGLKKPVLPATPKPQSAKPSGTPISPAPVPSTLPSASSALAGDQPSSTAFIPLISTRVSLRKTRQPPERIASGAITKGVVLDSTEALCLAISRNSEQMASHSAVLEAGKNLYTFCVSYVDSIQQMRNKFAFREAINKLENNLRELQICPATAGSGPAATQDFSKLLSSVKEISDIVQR

With `COc1cc(O)c2c(c1)[C@H]1OC1C[C@H](O)[C@H](O)C(=O)/C=C\C[C@H](C)OC2=O` (some centres undefined) the residual activity ([1]; compound 0.01 µM) was 102%, the residual activity ([1]; compound 0.1 µM) was 93% and the residual activity ([1]; compound 1.0 µM) was 94%. It also gave a residual activity ([2]; compound 0.01 µM) of 94%, a residual activity ([2]; compound 1.0 µM) of 102% and a residual activity ([3]; compound 0.01 µM) of 105%. For the same compound, the residual activity ([3]; compound 0.1 µM) was 92%, the residual activity ([4]; compound 0.01 µM) was 96% and the residual activity ([4]; compound 0.1 µM) was 97%. It also gave a residual activity ([4]; compound 1.0 µM) of 105%, a residual activity ([5]; compound 0.1 µM) of 101% and a residual activity ([5]; compound 1.0 µM) of 103%. For the same compound, the residual activity ([6]; compound 0.01 µM) was 106%, the residual activity ([6]; compound 0.1 µM) was 104% and the residual activity ([6]; compound 1.0 µM) was 114%. The residual activity ([7]; compound 0.01 µM) was 94%, the residual activity ([7]; compound 0.1 µM) was 96% and the residual activity ([8]; compound 0.01 µM) was 90%. For the same compound, the residual activity ([8]; compound 0.1 µM) was 92%, the residual activity ([8]; compound 1.0 µM) was 107% and the residual activity ([9]; compound 0.01 µM) was 106%. It also gave a residual activity ([9]; compound 0.1 µM) of 107%, a residual activity ([9]; compound 1.0 µM) of 88% and a residual activity ([10]; compound 0.01 µM) of 89%. The residual activity ([10]; compound 0.1 µM) was 82%, the residual activity ([11]; compound 0.01 µM) was 100% and the residual activity ([11]; compound 0.1 µM) was 98%. For the same compound, the residual activity ([11]; compound 1.0 µM) was 107%, the residual activity ([12]; compound 0.01 µM) was 112% and the residual activity ([12]; compound 0.1 µM) was 110%. The residual activity ([12]; compound 1.0 µM) was 99%, the residual activity ([13]; compound 0.01 µM) was 91% and the residual activity ([13]; compound 0.1 µM) was 88%. For the same compound, the residual activity ([13]; compound 1.0 µM) was 92%, the residual activity ([14]; compound 0.01 µM) was 113% and the residual activity ([14]; compound 0.1 µM) was 105%. For the same compound, the residual activity ([14]; compound 1.0 µM) was 113%, the residual activity ([15]; compound 0.01 µM) was 91% and the residual activity ([15]; compound 0.1 µM) was 113%. For the same compound, the residual activity ([16]; compound 0.01 µM) was 103%, the residual activity ([16]; compound 0.1 µM) was 109% and the residual activity ([16]; compound 1.0 µM) was 89%. It also gave a residual activity ([17]; compound 0.01 µM) of 101%, a residual activity ([17]; compound 1.0 µM) of 48% and a residual activity ([18]; compound 0.01 µM) of 97%. For the same compound, the residual activity ([18]; compound 0.1 µM) was 117%, the residual activity ([18]; compound 1.0 µM) was 111% and the residual activity ([19]; compound 0.01 µM) was 95%. The residual activity ([19]; compound 0.1 µM) was 101%, the residual activity ([20]; compound 0.1 µM) was 107% and the residual activity ([20]; compound 1.0 µM) was 92%. For the same compound, the residual activity ([21]; compound 0.01 µM) was 94%, the residual activity ([21]; compound 0.1 µM) was 107% and the residual activity ([21]; compound 1.0 µM) was 106%. The residual activity ([22]; compound 0.01 µM) was 100%, the residual activity ([22]; compound 0.1 µM) was 100% and the residual activity ([22]; compound 1.0 µM) was 109%. For the same compound, the residual activity ([23]; compound 0.01 µM) was 104%, the residual activity ([23]; compound 0.1 µM) was 99% and the residual activity ([24]; compound 0.01 µM) was 122%. For the same compound, the residual activity ([24]; compound 0.1 µM) was 101%, the residual activity ([24]; compound 1.0 µM) was 122% and the residual activity ([25]; compound 0.01 µM) was 97%. The residual activity ([25]; compound 0.1 µM) was 97%.
